Consider six compounds from patent US7491701B2, “Peptides that bind to HSP90 proteins” (Boys Town National Research Hospital, priority 2004, dated 2009).

Where no end group is shown, it is not given here.

The conditions of series [1]: background; cited from earlier work.
The conditions of series [2]: background; geldanamycin Phase I clinical trials; cited from earlier work.
Series [3] has as its system beta-COP. Kind of series: Binding of beta-COP from mouse brain extract to Sulfolink-peptide affinity matrix, western analysis. The conditions noted are these: FIG. 1B; for amount of beta-COP binding the peptide matrix: western with antibody to beta-COP; for amount of beta-COP bound by the di-serine control relative to the parent di-lysine peptide matrix: western, 672 BC1 vs OTOF CTERM E47, 670 CC1 vs OTOF CTERM E48. The procedure:
Antibody to beta-COP was obtained from Oncogene Research Products (EMD Biosciences, Ind.) (Product No. PC175) and used at a 1:1500 dilution. Antibody to mouse Hsp90α was obtained from Stressgen (Victoria, Canada), Product No. SPS-771 and used at a 1:1000 dilution.
(§1) Sulfolink-peptide affinity columns were synthesized using the Sulpholink Kit (Pierce Biotechnology, Inc., Rockford, Ill., Product No. 44895) according to their protocol. Peptides were stored at 4° C. in a lyophilized state in a sealed desiccator. Approximately 2 mg of peptide is weighed and suspended in 0.4 ml of DMSO. This peptide solution is immediately diluted into 2 ml of coupling buffer and mixed (100 μl is removed for quantization) then added to 4 ml of a 50% slurry of Sulfolink gel equilibrated in coupling buffer in a small plastic column. The combination is mixed for 15 minutes at room temperature by rotation. The mixture is further incubated for 30 minutes at room temperature without mixing. The column is washed with coupling buffer, then blocked with freshly made 0.5 M cysteine, further washed with a Wash buffer. The peptide affinity matrix was removed from the column to a 50 ml conical tube and stored as a 50% slurry in PBS containing 0.05% sodium azide at 4° C.
Total mouse brain from deeply anthesized adult mice is excised and flash frozen in liquid nitrogen and stored at −80° C. The frozen brain is pulverized in a mortar and pestle under liquid nitrogen and suspended in TNGD (TRIS 50 mM pH7.5, NaCl 75 mM, EGTA 10 mM, EDTA 2 mM) with protease inhibitors (10 μl/ml of protease inhibitor cocktail for mammalian cells, Sigma Chemical Co. No. P8340) at 1 ml/100 mg of tissue. This mixture is homogenized in a Potter-Elvehjem Teflon glass homogenizer on ice. The homogenate is centrifuged for 10 minutes at 4° C. in an IEC minifuge at 13,200 RPM. The pellet is discarded. The supernatant is used immediately or frozen and stored at −80° C.
All steps of protein purification were done at 4° C. in a Handee Spin Cup Column (Pierce Biotechnology, Inc., Rockford, Ill., Product No. 69700) in the presence of protease inibitor (10 μl/ml of protease inhibitor cocktail for mammalian cells, Sigma Chemical Co. No. P8340). Fifty μl of a 50% slurry of Sulfolink-peptide was washed five times with 0.4 ml of TNGD. Mouse brain extract supernatant (100 μl) was allowed to absorb to the gel by mixing by rotation for 30 minutes. Following absorption the gel is washed five times with 0.4 ml TNGD. Specific elution is described in the results.
Protein samples are made 1× with ImmunoPure Lane Marker Non-Reducing Sample Buffer (5×) (Pierce Biotechnology) and heated for 5 minutes at 95° C. Samples are separated on a 4-20% Linear Gradient Ready Gel (BIO-RAD Laboratories, Hercules, Calif., Product No. 161-1105). Polyacrylamide gels are stained with BIORAD Silver Stain Plus Kit (No. 161-0449) or Bio-Safe Coomassie Stain or electro-blotted to PVDF membrane (BIO-RAD) for Western blot analysis, according to directions provided by the manufacturer. Specific antibody binding is detected using ECL Western Blotting System (Amersham Biosciences Corp., Piscataway, N.J., Product No. RPN2108). Molecular weight standards used were the BIO-RAD Precision Protein Standards, Prestained, Broad Range (Product No. 161-0372). Chemiluminecence is detected using Kodak Biomax ML Scientific Imaging Film (Product No. 868-9358).
Mouse brain extracts were absorbed to the four peptide matrix columns as described in the methods. Column matrix was transferred to PCR tubes and made 1× with SDS buffer and heated for 5 minutes at 95° C. After heating the samples were centrifuged for 1 minute at 300×g and the supernatant separated by SDS gel electrophoresis on two separate gels.

Series [4] has as its target T1, recombinant human Hsp90α (Homo sapiens, UniProt P07900).
T1 construct: purchased Stressgen SPP-776
The experiment in a line: Binding of purified recombinant human Hsp90α to peptide affinity columns, 600 mM NaCl elution, silver stain. The note with it: for binding of Hsp90α to the peptide affinity column: 400 ng recombinant human Hsp90α, BSA-preabsorbed column, 4° C., silver stain, FIG. 5; for protein corresponding to Hsp90 molecular weight eluted with 600 mM NaCl, share of protein added: scan of silver stained gel, elution with TNGD + 600 mM NaCl. The procedure: Fifty μl of 50% slurry of OTOF CTERM E47 and OTOF CTERM E48 Sulfolink affinity matrix were equilibrated with four washes of 0.4 ml of TNGD buffer in Handee Spin Cup Columns (Pierce, Rockford). The columns was preabsorbed with 100 μl of 10% BSA for 30 minutes at 4° C. and mixed by rotation. The columns were then washed five times with 0.4 ml of TNGD. Four hundred (400) ng of recombinant human Hsp90α (Stressgen SPP-776, Lot No. B201401) in 100 μl of TNGD was added to each column for 30 minutes at 4° C. and mixed by rotation. The unabsorbed protein was removed by centrifugation. The columns were washed five times with 0.4 ml of TNGD, then eluted with 100 μl TNGD+600 mM NaCl. Samples were analyzed on a 4-20% SDS-PAGE gel followed by silver staining using a BIORAD Silver Stain Plus kit (No. 161-0449) as show in FIG. 5. […] The amount of protein added and eluted was determined by scanning the silver stained gel using a Alpha Imager 2200 gel imaging system.

Series [5] concerns the target T2, Hsp90α (p97, HS9A_MOUSE) (Mus musculus, UniProt P07901).
T2 construct: Total mouse brain from deeply anthesized adult mice is excised and flash frozen in liquid nitrogen; from tissue; host or cells: adult mouse brain, 13,200 rpm supernatant of homogenate
The experiment in a line: Binding of mouse brain extract protein p97 (identified as Hsp90α) to Sulfolink-peptide affinity matrix, SDS-PAGE Coomassie stain. The note with it: Coomassie stained gel, FIG. 1A. The procedure: as §1, with “The peptide affinity matrix was removed from the column to a 50 ml conical tube and stored as a 50% slurry in PBS containing 0.05% sodium azide at 4° C.” left out
Protein samples are made 1× with ImmunoPure Lane Marker Non-Reducing Sample Buffer (5×) (Pierce Biotechnology) and heated for 5 minutes at 95° C. Samples are separated on a 4-20% Linear Gradient Ready Gel (BIO-RAD Laboratories, Hercules, Calif., Product No. 161-1105). […] Specific antibody binding is detected using ECL Western Blotting System (Amersham Biosciences Corp., Piscataway, N.J., Product No. RPN2108). […] Chemiluminecence is detected using Kodak Biomax ML Scientific Imaging Film (Product No. 868-9358). […]

With `C=CCNC1=C2C[C@@H](C)C[C@H](OC)[C@H](O)[C@@H](C)/C=C(\C)[C@H](OC(N)=O)[C@@H](OC)/C=C\C=C(/C)C(=O)NC(=CC1=O)C2=O` [Peptide 17-AAG, 17-(allylamino)-17-desmethoxygeldanamycin], the “water / aqueous solubility” value in series [1] is listed as “limited aqueous solubility”. Also, in series [2], the hepatotoxicity entry was “reduced hepatotoxicity”.

As for `COC1=C2C[C@@H](C)C[C@H](OC)[C@H](O)[C@@H](C)/C=C(\C)[C@H](OC(N)=O)[C@@H](OC)/C=C\C=C(/C)C(=O)NC(=CC1=O)C2=O` [geldanamycin], the “water / aqueous solubility” value in series [1] is “poor water solubility”. Besides, the hepatotoxicity result in series [2] is given as “hepatotoxicity”.

Take “CYSLPGYLAKKILGA (also: coupled to Sulfolink matrix) [OTOF CTERM E47, C-terminus 14 amino acids of the brain otoferlin isoform with added N-terminal cysteine, coupled to Sulfolink matrix]”: the “amount of beta-COP binding the peptide matrix” value in series [3] is listed as “similar”; in series [3] (listed as E47), “specific binding”. For the same compound, the “binding of Hsp90α to the peptide affinity column” value in series [4] is “does not bind”. In addition, the “protein corresponding to Hsp90 molecular weight eluted with 600 mM NaCl, share of protein added” value in series [4] was “no eluted protein was detected”.

Consider “CYSLPGYLASSILGA (peptide corresponding to the C-terminus of an otoferlin isoform with di-lysine replaced by di-serine) [672 BC1, E47 peptide control with the di-lysine replaced with di-serine, reference compound]”, for which the “amount of beta-COP bound by the di-serine control relative to the parent di-lysine peptide matrix” value in series [3] is on record as “about half”.

Turning to “CYSLPGYMVKKLLGA (also: coupled to Sulfolink matrix) [OTOF CTERM E48, C-terminus 14 amino acids of the cochlear otoferlin isoform with added N-terminal cysteine, coupled to Sulfolink matrix]”, the “binding of a protein at approximately 97 kilo-daltons (p97, Hsp90α) to the peptide matrix” value in series [5] is given as “higher levels”; in series [5] (listed as E48) it was “specific binding”. The “amount of beta-COP binding the peptide matrix” value in series [3] is “similar”; in series [3] (listed as E48) it was “specific binding”. For the same compound, in series [4], the “binding of Hsp90α to the peptide affinity column” value is “specifically binds”. In series [4], the “protein corresponding to Hsp90 molecular weight eluted with 600 mM NaCl, share of protein added” value is given as “Approximately 10%”.

Take “CYSLPGYMVSSLLGA (peptide corresponding to the C-terminus of an otoferlin isoform with di-lysine replaced by di-serine) [670 CC1, E48 peptide control with the di-lysine replaced with di-serine, reference compound]”: in series [3], the “amount of beta-COP bound by the di-serine control relative to the parent di-lysine peptide matrix” value is recorded as “about a tenth”.
